Test results: the supplement of paper PMC10307832

Columns and labels:
Experiment in all cases: relative viability (nuclei count vs DMSO), 5 days (fraction); higher = more cells survive
[1] = system: LCLC-103H
How it was run: (§1)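 Relative viability is defined as nuclei in treated wells over nuclei in vehicle wells. Duplicate plates were run and medians reported. Lung cancer cell lines in 1536-well plates were dosed by pin tool one day after seeding, with one drug or with a fixed anchor-drug dose plus five library-drug doses (not always all listed) in √10 steps, and nuclei were counted after 5 days.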

[2] = system: LOU-NH91
How it was run: as §1

[3] = system: NCI-H1734
How it was run: as §1

[4] = system: NCI-H1355
How it was run: as §1

[5] = system: NCI-H2342
How it was run: as §1

[6] = system: NCI-H1666
How it was run: as §1

[7] = system: NCI-H441
How it was run: as §1

[8] = system: RERF-LC-KJ
How it was run: as §1

[9] = system: SK-LU-1
How it was run: as §1

[10] = system: H3255
How it was run: as §1

[11] = system: NCI-H1975
How it was run: as §1

[12] = system: NCI-H647
How it was run: as §1

[13] = system: NCI-H1793
How it was run: as §1

[14] = system: NCI-H1915
How it was run: as §1

[15] = system: NCI-H1944
How it was run: as §1

[16] = system: NCI-H1651
How it was run: as §1

[17] = system: NCI-H2023
How it was run: as §1

[18] = system: UMC-11
How it was run: as §1

[19] = system: NCI-H2405
How it was run: as §1

[20] = system: 201T
How it was run: as §1

[21] = system: EPLC-272H
How it was run: as §1

SMILES: COCC1(CO)C(=O)C2CCN1CC2 (configuration not stated) [PRIMA-1MET] + O=C(CCCCCCC(=O)Nc1ccccc1)NO [Vorinostat] (partner 1 µM)
- relative viability ([1]; first compound 0.2 µM): 0.76
- relative viability ([1]; first compound 0.6325 µM): 0.64
- relative viability ([1]; first compound 2 µM): 0.558
- relative viability ([1]; first compound 6.325 µM): 0.771
- relative viability ([1]; first compound 20 µM): 0.793
- relative viability ([2]; first compound 0.2 µM): 0.987
- relative viability ([2]; first compound 0.6325 µM): 0.878
- relative viability ([2]; first compound 2 µM): 0.759
- relative viability ([2]; first compound 6.325 µM): 0.863
- relative viability ([2]; first compound 20 µM): 0.296
- relative viability ([3]; first compound 0.2 µM): 1.08
- relative viability ([3]; first compound 0.6325 µM): 0.718
- relative viability ([3]; first compound 2 µM): 0.777
- relative viability ([3]; first compound 6.325 µM): 0.536
- relative viability ([3]; first compound 20 µM): 0.0676
- relative viability ([4]; first compound 0.2 µM): 0.648
- relative viability ([4]; first compound 0.6325 µM): 0.632
- relative viability ([4]; first compound 2 µM): 0.556
- relative viability ([4]; first compound 6.325 µM): 0.671
- relative viability ([4]; first compound 20 µM): 0.58
- relative viability ([5]; first compound 0.2 µM): 0.694
- relative viability ([5]; first compound 0.6325 µM): 0.913
- relative viability ([5]; first compound 6.325 µM): 0.748
- relative viability ([5]; first compound 20 µM): 0.607
- relative viability ([6]; first compound 0.2 µM): 1.03
- relative viability ([6]; first compound 0.6325 µM): 0.915
- relative viability ([6]; first compound 2 µM): 1.05
- relative viability ([6]; first compound 6.325 µM): 1.07
- relative viability ([6]; first compound 20 µM): 0.956
- relative viability ([7]; first compound 0.2 µM): 0.689
- relative viability ([7]; first compound 0.6325 µM): 0.6
- relative viability ([7]; first compound 2 µM): 0.887
- relative viability ([7]; first compound 6.325 µM): 0.96
- relative viability ([7]; first compound 20 µM): 0.553
- relative viability ([8]; first compound 0.2 µM): 0.817
- relative viability ([8]; first compound 0.6325 µM): 0.507
- relative viability ([8]; first compound 2 µM): 0.589
- relative viability ([8]; first compound 6.325 µM): 0.911
- relative viability ([8]; first compound 20 µM): 0.659
- relative viability ([9]; first compound 0.2 µM): 0.852
- relative viability ([9]; first compound 0.6325 µM): 0.761
- relative viability ([9]; first compound 2 µM): 0.839
- relative viability ([9]; first compound 6.325 µM): 0.673
- relative viability ([9]; first compound 20 µM): 0.561
- relative viability ([10]; first compound 0.2 µM): 0.745
- relative viability ([10]; first compound 0.6325 µM): 0.779
- relative viability ([10]; first compound 2 µM): 0.809
- relative viability ([10]; first compound 6.325 µM): 0.901
- relative viability ([10]; first compound 20 µM): 0.656
- relative viability ([11]; first compound 0.2 µM): 0.766
- relative viability ([11]; first compound 0.6325 µM): 0.657
- relative viability ([11]; first compound 2 µM): 0.736
- relative viability ([11]; first compound 6.325 µM): 0.725
- relative viability ([11]; first compound 20 µM): 0.698
- relative viability ([12]; first compound 0.2 µM): 0.849
- relative viability ([12]; first compound 0.6325 µM): 0.444
- relative viability ([12]; first compound 2 µM): 0.549
- relative viability ([12]; first compound 6.325 µM): 0.538
- relative viability ([12]; first compound 20 µM): 0.596
- relative viability ([13]; first compound 0.2 µM): 0.932
- relative viability ([13]; first compound 0.6325 µM): 0.488
- relative viability ([13]; first compound 6.325 µM): 0.797
- relative viability ([13]; first compound 20 µM): 0.762
- relative viability ([14]; first compound 0.2 µM): 0.605
- relative viability ([14]; first compound 0.6325 µM): 0.378
- relative viability ([14]; first compound 2 µM): 0.446
- relative viability ([14]; first compound 6.325 µM): 0.625
- relative viability ([14]; first compound 20 µM): 0.482
- relative viability ([15]; first compound 0.2 µM): 0.724
- relative viability ([15]; first compound 0.6325 µM): 0.4
- relative viability ([15]; first compound 2 µM): 0.428
- relative viability ([15]; first compound 6.325 µM): 0.531
- relative viability ([15]; first compound 20 µM): 0.539
- relative viability ([16]; first compound 0.2 µM): 0.563
- relative viability ([16]; first compound 0.6325 µM): 0.188
- relative viability ([16]; first compound 2 µM): 0.458
- relative viability ([16]; first compound 6.325 µM): 0.617
- relative viability ([16]; first compound 20 µM): 0.564
- relative viability ([17]; first compound 0.2 µM): 1.06
- relative viability ([17]; first compound 0.6325 µM): 0.474
- relative viability ([17]; first compound 2 µM): 0.442
- relative viability ([17]; first compound 6.325 µM): 0.734
- relative viability ([17]; first compound 20 µM): 0.254
- relative viability ([18]; first compound 0.2 µM): 0.422
- relative viability ([18]; first compound 0.6325 µM): 0.358
- relative viability ([18]; first compound 2 µM): 0.385
- relative viability ([18]; first compound 6.325 µM): 0.477
- relative viability ([18]; first compound 20 µM): 0.479
- relative viability ([19]; first compound 0.2 µM): 1.03
- relative viability ([19]; first compound 0.6325 µM): 0.945
- relative viability ([19]; first compound 6.325 µM): 0.934
- relative viability ([19]; first compound 20 µM): 0.106
- relative viability ([20]; first compound 0.2 µM): 1.15
- relative viability ([20]; first compound 0.6325 µM): 0.676
- relative viability ([20]; first compound 2 µM): 0.797
- relative viability ([20]; first compound 6.325 µM): 0.991
- relative viability ([20]; first compound 20 µM): 0.98
- relative viability ([21]; first compound 0.2 µM): 0.536
- relative viability ([21]; first compound 0.6325 µM): 0.581
- relative viability ([21]; first compound 2 µM): 0.417
- relative viability ([21]; first compound 6.325 µM): 0.534
- relative viability ([21]; first compound 20 µM): 0.0678
